# Assay results: patent US8999970B2, “Administration of an anti-obesity compound to individuals with renal impairment” (Arena Pharmaceuticals, Inc., priority 2010, dated 2015)
# Columns and labels:
# [1] = Preclinical toxicology: M1 and M5 pharmacokinetics after oral administration of lorcaserin, 52 wk, rats
# [2] = system: panel of receptors, ion channels and transporters; assay: Pharmacological activity of metabolites at a panel of receptors, ion channels and transporters
# [3] = Clinical trial APD356-016: plasma and urine pharmacokinetics of lorcaserin, M1 and M5 after a 10 mg dose in subjects with renal impairment; conditions: for tmax: median; for Ae0-120 / fe0-120: urine
# Method: The interaction of renal insufficiency with the pharmacokinetics, tolerability and safety of lorcaserin were evaluated in a formal PK study in subjects with renal impairment and in the populations studied in phase 2 and phase 3 clinical studies.
# The pharmacokinetic properties of lorcaserin in subjects with varying degrees of renal impairment were evaluated in clinical trial APD356-016. At the time of study conduct and analysis, subjects were assigned to renal impairment groups based on creatinine clearance calculated using IDEAL body weight (Table 1). This calculation was used to avoid overestimation of creatinine clearance due to the excess body weight (overweight and obese subjects were enrolled in the trial). Summaries of pharmacokinetic properties by group assignment using creatinine clearance calculated using ACTUAL body weights are also provided in the sections that follow.
# The FDA expects a reasonable margin between anticipated exposures and exposures that may produce toxicity. A reasonable margin can vary depending on the expected toxicity, but generally is an order of magnitude (10 times), but can sometimes be less for mild toxicity.
# Table 13. Summary of Plasma Concentrations (ng/mL) of HSO3-APD356 Metabolite over Time by Group: Severe Renal Impairment Not Receiving Dialysis (see Table 13 next page)
# Subject number 3140-505 was on dialysis and grouped in the end stage renal disease group.
# [4] = lorcaserin 10 mg/kg/day oral, F
# [5] = lorcaserin 10 mg/kg/day oral, M
# [6] = lorcaserin 30 mg/kg/day oral, F
# [7] = lorcaserin 30 mg/kg/day oral, M
# [8] = lorcaserin 100 mg/kg/day oral, F
# [9] = lorcaserin 100 mg/kg/day oral, M
# [10] = 10 mg dose, Mild, actual BW groups
# [11] = 10 mg dose, Mild, ideal BW groups
# [12] = 10 mg dose, Moderate, actual BW groups
# [13] = 10 mg dose, Moderate, ideal BW groups
# [14] = 10 mg dose, Normal, actual BW groups
# [15] = 10 mg dose, Normal, ideal BW groups
# [16] = 10 mg dose, Severe N = 1, actual BW groups
# [17] = 10 mg dose, Severe, ideal BW groups
# [18] = ESRD, 10 mg QD Authentic, Day 1
# [19] = Mild, 10 mg QD Authentic, Day 1
# [20] = Moderate, 10 mg QD Authentic, Day 1
# [21] = Normal, 10 mg QD Authentic, Day 1
# [22] = Severe, 10 mg QD Authentic, Day 1
smiles,measurement,setting,value
"C[C@H]1CN(C(=O)O[C@@H]2O[C@H](C(=O)O)[C@@H](O)[C@H](O)[C@H]2O)CCc2ccc(Cl)cc21 [Compound M5, N-carbamoyl glucuronide of lorcaserin]",AUC0-inf,[1]; [4],349 ng·h/mL
same,AUClast,[1]; [4],273 ng·h/mL
same,Cmax,[1]; [4],53.8 ng/mL
same,tmax,[1]; [4],0.5 h
same,AUC0-inf,[1]; [5],602 ng·h/mL
same,AUClast,[1]; [5],550 ng·h/mL
same,Cmax,[1]; [5],178 ng/mL
same,tmax,[1]; [5],1.0 h
same,AUC0-inf,[1]; [6],1960 ng·h/mL
same,AUClast,[1]; [6],1620 ng·h/mL
same,Cmax,[1]; [6],337 ng/mL
same,tmax,[1]; [6],1.0 h
same,AUC0-inf,[1]; [7],3100 ng·h/mL
same,AUClast,[1]; [7],3070 ng·h/mL
same,Cmax,[1]; [7],559 ng/mL
same,tmax,[1]; [7],0.5 h
same,AUC0-inf,[1]; [8],12800 ng·h/mL
same,AUClast,[1]; [8],11100 ng·h/mL
same,Cmax,[1]; [8],1200 ng/mL
same,tmax,[1]; [8],2.0 h
same,AUC0-inf,[1]; [9],16500 ng·h/mL
same,AUClast,[1]; [9],14900 ng·h/mL
same,Cmax,[1]; [9],2030 ng/mL
same,tmax,[1]; [9],0.5 h
same,"Activity at serotonin receptors or at a panel of more than 60 GPCRs, transporters and ion channels",[2],neither metabolite is active
same,"Pharmacological activity at all receptors, transporters and ion channels tested to date",[2],pharmacologically inactive
same,% AUC Extrapolated,"[3]; 10 mg dose, ESRD (Period 1)",14.7%
same,AUC0-inf,"[3]; 10 mg dose, ESRD (Period 1)",11200 ng·h/mL
same,AUC(0-t),"[3]; 10 mg dose, ESRD (Period 1)",9530 ng·h/mL
same,AUClast,"[3]; 10 mg dose, ESRD (Period 1)",9530 ng·h/mL
same,Cmax,"[3]; 10 mg dose, ESRD (Period 1)",300 ng/mL
same,MRTinf,"[3]; 10 mg dose, ESRD (Period 1)",38.6 h
same,t1/2z,"[3]; 10 mg dose, ESRD (Period 1)",25.7 h
same,tmax,"[3]; 10 mg dose, ESRD (Period 1)",3.00 h
same,% AUC Extrapolated,"[3]; 10 mg dose, ESRD (Period 2)",26.9%
same,AUC0-inf,"[3]; 10 mg dose, ESRD (Period 2)",11900 ng·h/mL
same,AUC(0-t),"[3]; 10 mg dose, ESRD (Period 2)",8240 ng·h/mL
same,AUClast,"[3]; 10 mg dose, ESRD (Period 2)",8240 ng·h/mL
same,Cmax,"[3]; 10 mg dose, ESRD (Period 2)",231 ng/mL
same,MRTinf,"[3]; 10 mg dose, ESRD (Period 2)",59.1 h
same,t1/2z,"[3]; 10 mg dose, ESRD (Period 2)",40.5 h
same,tmax,"[3]; 10 mg dose, ESRD (Period 2)",3.10 h
same,% AUC0-inf Extrapolated,[3]; [10],14.5%
same,AUC0-inf,[3]; [10],1040 ng·h/mL
same,AUClast,[3]; [10],914 ng·h/mL
same,Cmax,[3]; [10],91.9 ng/mL
same,MRTinf,[3]; [10],16.6 h
same,T1/2z,[3]; [10],13.5 h
same,tmax,[3]; [10],2 h
same,% AUC0-inf Extrapolated,[3]; [11],17.7%
same,AUC0-inf,[3]; [11],583 ng·h/mL
same,AUC(0-t),[3]; [11],482 ng·h/mL
same,Cmax,[3]; [11],62.4 ng/mL
same,MRTinf,[3]; [11],13.5 h
same,T1/2z,[3]; [11],10.7 h
same,tmax,[3]; [11],2.00 h
same,% AUC0-inf Extrapolated,[3]; [12],12.1%
same,AUC0-inf,[3]; [12],1700 ng·h/mL
same,AUClast,[3]; [12],1510 ng·h/mL
same,Cmax,[3]; [12],134 ng/mL
same,MRTinf,[3]; [12],18.5 h
same,T1/2z,[3]; [12],14.4 h
same,tmax,[3]; [12],2 h
same,% AUC0-inf Extrapolated,[3]; [13],15.6%
same,AUC0-inf,[3]; [13],1100 ng·h/mL
same,AUC(0-t),[3]; [13],944 ng·h/mL
same,Cmax,[3]; [13],96.4 ng/mL
same,MRTinf,[3]; [13],18.5 h
same,T1/2z,[3]; [13],15.4 h
same,tmax,[3]; [13],2.00 h
same,% AUC0-inf Extrapolated,[3]; [14],23.1%
same,AUC0-inf,[3]; [14],498 ng·h/mL
same,AUClast,[3]; [14],381 ng·h/mL
same,Cmax,[3]; [14],66.2 ng/mL
same,MRTinf,[3]; [14],14.2 h
same,T1/2z,[3]; [14],11.7 h
same,tmax,[3]; [14],2 h
same,% AUC0-inf Extrapolated,[3]; [15],26.3%
same,AUC0-inf,[3]; [15],475 ng·h/mL
same,AUC(0-t),[3]; [15],345 ng·h/mL
same,Cmax,[3]; [15],70.5 ng/mL
same,MRTinf,[3]; [15],14.6 h
same,T1/2z,[3]; [15],12.2 h
same,tmax,[3]; [15],1.00 h
same,% AUC0-inf Extrapolated,[3]; [16],2.59%
same,AUC0-inf,[3]; [16],6480 ng·h/mL
same,AUClast,[3]; [16],6310 ng·h/mL
same,Cmax,[3]; [16],214 ng/mL
same,MRTinf,[3]; [16],33.4 h
same,T1/2z,[3]; [16],23.1 h
same,tmax,[3]; [16],4 h
same,% AUC0-inf Extrapolated,[3]; [17],8.46%
same,AUC0-inf,[3]; [17],2470 ng·h/mL
same,AUC(0-t),[3]; [17],2290 ng·h/mL
same,Cmax,[3]; [17],153 ng/mL
same,MRTinf,[3]; [17],20.0 h
same,T1/2z,[3]; [17],14.9 h
same,tmax,[3]; [17],2.50 h
same,Ae0-120,[3]; [10],7470 µg
same,fe0-120,[3]; [10],0.417
same,Ae0-120,[3]; [11],7160 µg
same,fe0-120,[3]; [11],0.399
same,Ae0-120,[3]; [12],6480 µg
same,fe0-120,[3]; [12],0.361
same,Ae0-120,[3]; [13],8000 µg
same,fe0-120,[3]; [13],0.446
same,Ae0-120,[3]; [14],8210 µg
same,fe0-120,[3]; [14],0.458
same,Ae0-120,[3]; [15],8540 µg
same,fe0-120,[3]; [15],0.476
same,Ae0-120,[3]; [16],6720 µg
same,fe0-120,[3]; [16],0.375
same,Ae0-120,[3]; [17],6300 µg
same,fe0-120,[3]; [17],0.351
same,Amount in the body cleared during a standard 4-hour hemodialysis procedure,[3]; ESRD,Approximately 18%
same,Hemodialysis extraction ratio,[3]; ESRD,18.4%
same,Removal by hemodialysis,[3]; ESRD,partially removed
same,AUC24 hr,[3]; [18],9530 ng·h/mL
same,Cmax,[3]; [18],300 ng/mL
same,t1/2,[3]; [18],25.7 h
same,AUC24 hr,[3]; [19],482 ng·h/mL
same,Cmax,[3]; [19],62.4 ng/mL
same,t1/2,[3]; [19],10.7 h
same,AUC24 hr,[3]; [20],944 ng·h/mL
same,Cmax,[3]; [20],96.4 ng/mL
same,t1/2,[3]; [20],15.4 h
same,AUC24 hr,[3]; [21],345 ng·h/mL
same,Cmax,[3]; [21],70.5 ng/mL
same,t1/2,[3]; [21],12.2 h
same,AUC24 hr,[3]; [22],2290 ng·h/mL
same,Cmax,[3]; [22],153 ng/mL
same,t1/2,[3]; [22],14.9 h
same,Exposure (Geometric Mean Ratio for AUCinf) increase compared to normal subjects,[3]; mild (CLcr=51-80 mL/min),1.2 fold
same,Terminal half-life prolonged by,[3]; mild renal impairment,0%
same,Exposure (Geometric Mean Ratio for AUCinf) increase compared to normal subjects,[3]; moderate (CLcr=31-50 mL/min),2.3 fold
same,Terminal half-life prolonged by,[3]; moderate renal impairment,26%
same,Fractional excretion,[3]; normal renal function,48%
same,Exposure (Geometric Mean Ratio for AUCinf) increase compared to normal subjects,[3]; severe (CLcr=5-30 mL/min),5.2 fold
same,Fractional excretion,[3]; severe renal impairment,35%
same,Terminal half-life prolonged by,[3]; severe renal impairment,22%
same,Highest individual AUC0-inf in a subject not on hemodialysis,"[3]; subject 3140-010, creatinine clearance 9.9 mL/min",6480 ng·h/mL
same,Highest observed Cmax in the clinical study,[3]; subject with ESRD (#3140-505),520 ng/mL
same,Highest AUC0-inf overall,[3]; subject with ESRD on hemodialysis,20800 ng·h/mL
